These are literature values, as cited in patent US20080268066A1, “Synergistic Formulation for Preventing and/or Treating Diabetes” (priority 2005, published 2008).

Structures are written as SMILES. Where a name gives a salt, the structure may show the parent alone. Read-outs that look alike come from different tables or passages of the source.

The test system of data set [1] is women of polycystic ovary syndrome (PCOS). The settings on record: daily dose of 1500 mg, 8 weeks later, about 20 women.
For data set [2] the following is noted: intravenous 600 mg, 5 times, after two weeks; control group 2 points.
Data set [3] deals with babies of mothers with diabetes / embryos in similar glucose concentration. The settings on record: 71%-88% without.
In another data set the test system is homocysteine. Conditions: human, in vivo.
Data set [4] relates to acute medicamentous kidney lesion.
For data set [5], the system named is patients with retinal degeneration. The settings on record: among 16 patients; supplement every day for 6 months or more.
For another data set, the system named is prostate cancer. The settings on record: fraction.

Turning to `CN(C)C(=N)N=C(N)N` [Metformin HCl], the “women whose menstruation recovered to a normal level” value in data set [1] was 86.7%. For `O=C(O)CCCCC1CCSS1` (stereo not drawn) [alpha_lipoic acid], the “decrease of the feeling of pain” value in data set [2] is on record as 6 points.

For the compound `Nc1nc2ncc(CNc3ccc(C(=O)N[C@@H](CCC(=O)O)C(=O)O)cc3)nc2c(=O)[nH]1` [folic acid], the “probability of babies' aplasia” value in data set [3] (embryos in similar glucose concentration with folic acid) is reported as 5%; in data set [3] (pregnant animals fed with folic acid), 3%. In addition, the “decrease of the level of homocysteine” value with homocysteine is on record as 25%. Consider `N[C@@H](CCC(=O)N[C@@H](CS)C(=O)NCC(=O)O)C(=O)O` [glutathione, L-glutamic acid-L-cysteine-glycine], for which the “total effectiveness on blood urine” value in data set [4] (P<0.01) is 89%. Further, in data set [4] (P<0.05), the total effectiveness is reported as 92% and the “total effectiveness on proteinuria” value is 57%. For `CC1=C[C@H](O)CC(C)(C)[C@H]1/C=C/C(C)=C/C=C/C(C)=C/C=C/C=C(C)/C=C/C=C(C)/C=C/C1=C(C)C[C@@H](O)CC1(C)C` [lutein], the “patients whose vision was apparently improved” value in data set [5] is 12 patients.

Consider `CC(C)=CCC/C(C)=C/C=C/C(C)=C/C=C/C(C)=C/C=C/C=C(C)/C=C/C=C(C)/C=C/C=C(\C)CCC=C(C)C` [lycopene], for which, in the data set with prostatic carcinoma (human, in vivo), the “patients in whom cancer cells proliferation were stopped” value is reported as 44%. In addition, the “patients with size of the tumor not over 4 dm^3” value with prostatic carcinoma (taken 3 weeks before the operation, 55% without) was 85%. As for `[Se]` [selenium], the “decrease of the occurrence of prostate cancer” value with prostate cancer was “½-⅓”.
